Experimental data reported in ChEMBL document CHEMBL1649220, “New variant of CTX-M-type extended-spectrum beta-lactamases, CTX-M-71, with a Gly238Cys substitution in a Klebsiella pneumoniae isolate from Bulgaria” (2009).
≈ marks a conversion by molar mass, not a printed value.

Each compound was assayed on Klebsiella pneumoniae (assay: Antimicrobial activity against Klebsiella pneumoniae AH24-270 expressing blaCTX-M-71 gene by agar dilution method). Details: not given.
Type: functional

Row | Compound | MIC
1 | CC1(C)S[C@@H]2[C@H](NC(=O)[C@H](N)c3ccc(O)cc3)C(=O)N2[C@H]1C(=O)O [AMOXICILLIN] | > 512 µg/mL
2 | C[C@@H](O)[C@H]1C(=O)N2C(C(=O)O)=C(SCCNC=N)C[C@H]12 [IMIPENEM ANHYDROUS] | 1 µg/mL (≈ 3.34 µM)
3 | C[C@H]1[C@H](NC(=O)/C(=N\OC(C)(C)C(=O)O)c2csc(N)n2)C(=O)N1S(=O)(=O)O [AZTREONAM] | 128 µg/mL (≈ 294 µM)
4 | CO/N=C(\C(=O)N[C@@H]1C(=O)N2C(C(=O)[O-])=C(C[N+]3(C)CCCC3)CS[C@H]12)c1csc(N)n1 [CEFEPIME] | 128 µg/mL (≈ 266 µM)
5 | CO/N=C(\C(=O)N[C@@H]1C(=O)N2C(C(=O)O)=C(COC(N)=O)CS[C@H]12)c1ccco1 [CEFUROXIME] | > 512 µg/mL
6 | C[C@@H](O)[C@H]1C(=O)N2C(C(=O)O)=C([C@H]3CCCO3)S[C@H]12 [FAROPENEM] | 4 µg/mL (≈ 14 µM)

Each compound was assayed on Escherichia coli (assay: Antimicrobial activity against Escherichia coli DH5alpha harboring pBC-CTX-M-71 plasmid by agar dilution method in presence of beta-lactamase inhibitor clavulanic acid). Details: DH5[alpha].
Type: functional

Row | Compound | MIC
7 | CC1(C)S[C@@H]2[C@H](NC(=O)[C@H](N)c3ccc(O)cc3)C(=O)N2[C@H]1C(=O)O [AMOXICILLIN] | 8 µg/mL
8 | C[C@@H](O)[C@H]1C(=O)N2C(C(=O)O)=C(SCCNC=N)C[C@H]12 [IMIPENEM ANHYDROUS] | 0.25 µg/mL
9 | C[C@@H](O)[C@H]1C(=O)N2C(C(=O)O)=C([C@H]3CCCO3)S[C@H]12 [FAROPENEM] | 0.5 µg/mL

What follows are compounds tested on Escherichia coli (assay: Antimicrobial activity against Escherichia coli DH5[alpha] harboring pBC-CTX-M-15 plasmid by agar dilution method). Details: not given.
Type: functional

Row | Compound | MIC
10 | CC1(C)S[C@@H]2[C@H](NC(=O)[C@H](N)c3ccc(O)cc3)C(=O)N2[C@H]1C(=O)O [AMOXICILLIN] | > 512 µg/mL
11 | C[C@H]1[C@H](NC(=O)/C(=N\OC(C)(C)C(=O)O)c2csc(N)n2)C(=O)N1S(=O)(=O)O [AZTREONAM] | 64 µg/mL (≈ 147 µM)
12 | CO/N=C(\C(=O)N[C@@H]1C(=O)N2C(C(=O)[O-])=C(C[N+]3(C)CCCC3)CS[C@H]12)c1csc(N)n1 [CEFEPIME] | 16 µg/mL (≈ 33.3 µM)
13 | CO/N=C(\C(=O)N[C@@H]1C(=O)N2C(C(=O)O)=C(COC(N)=O)CS[C@H]12)c1ccco1 [CEFUROXIME] | > 512 µg/mL
14 | C[C@@H](O)[C@H]1C(=O)N2C(C(=O)O)=C([C@H]3CCCO3)S[C@H]12 [FAROPENEM] | 1 µg/mL (≈ 3.5 µM)

What follows are compounds tested on Escherichia coli (assay: Antimicrobial activity against Escherichia coli DH5alpha harboring pBC-CTX-M-15 plasmid by agar dilution method in presence of beta-lactamase inhibitor clavulanic acid). Details: DH5[alpha].
Type: functional

Row | Compound | MIC
15 | CC1(C)S[C@@H]2[C@H](NC(=O)[C@H](N)c3ccc(O)cc3)C(=O)N2[C@H]1C(=O)O [AMOXICILLIN] | 8 µg/mL
16 | C[C@@H](O)[C@H]1C(=O)N2C(C(=O)O)=C([C@H]3CCCO3)S[C@H]12 [FAROPENEM] | 0.5 µg/mL

Each compound was assayed on Klebsiella pneumoniae (assay: Antimicrobial activity against Klebsiella pneumoniae AH24-270 expressing blaCTX-M-71 gene by agar dilution method in presence of beta-lactamase inhibitor clavulanic acid). Details: not given.
Type: functional

Row | Compound | MIC
17 | CC1(C)S[C@@H]2[C@H](NC(=O)[C@H](N)c3ccc(O)cc3)C(=O)N2[C@H]1C(=O)O [AMOXICILLIN] | > 512 µg/mL
18 | C[C@@H](O)[C@H]1C(=O)N2C(C(=O)O)=C(SCCNC=N)C[C@H]12 [IMIPENEM ANHYDROUS] | 0.5 µg/mL
19 | C[C@@H](O)[C@H]1C(=O)N2C(C(=O)O)=C([C@H]3CCCO3)S[C@H]12 [FAROPENEM] | 4 µg/mL

Each compound was assayed on Escherichia coli (assay: Antimicrobial activity against Escherichia coli K-12 transconjugant harboring blaCTX-M-71 gene by agar dilution method in presence of beta-lactamase inhibitor clavulanic acid). Details: not given.
Type: functional

Row | Compound | MIC
20 | CC1(C)S[C@@H]2[C@H](NC(=O)[C@H](N)c3ccc(O)cc3)C(=O)N2[C@H]1C(=O)O [AMOXICILLIN] | 64 µg/mL
21 | C[C@@H](O)[C@H]1C(=O)N2C(C(=O)O)=C([C@H]3CCCO3)S[C@H]12 [FAROPENEM] | 0.5 µg/mL

These compounds were tested on Escherichia coli (assay: Antimicrobial activity against Escherichia coli K-12 by agar dilution method in presence of beta-lactamase inhibitor clavulanic acid). Details: not given.
Type: functional

Row | Compound | MIC
22 | CC1(C)S[C@@H]2[C@H](NC(=O)[C@H](N)c3ccc(O)cc3)C(=O)N2[C@H]1C(=O)O [AMOXICILLIN] | 2 µg/mL
23 | C[C@@H](O)[C@H]1C(=O)N2C(C(=O)O)=C(SCCNC=N)C[C@H]12 [IMIPENEM ANHYDROUS] | 0.13 µg/mL
24 | C[C@@H](O)[C@H]1C(=O)N2C(C(=O)O)=C([C@H]3CCCO3)S[C@H]12 [FAROPENEM] | 0.5 µg/mL

These compounds were tested on Escherichia coli (assay: Antimicrobial activity against Escherichia coli DH5[alpha] by agar dilution method). Details: not given.
Type: functional

Row | Compound | MIC
25 | CC1(C)S[C@@H]2[C@H](NC(=O)[C@H](N)c3ccc(O)cc3)C(=O)N2[C@H]1C(=O)O [AMOXICILLIN] | 4 µg/mL (≈ 10.9 µM)
26 | CO/N=C(\C(=O)N[C@@H]1C(=O)N2C(C(=O)[O-])=C(C[N+]3(C)CCCC3)CS[C@H]12)c1csc(N)n1 [CEFEPIME] | 0.016 µg/mL (≈ 0.0333 µM)
27 | CO/N=C(\C(=O)N[C@@H]1C(=O)N2C(C(=O)O)=C(COC(N)=O)CS[C@H]12)c1ccco1 [CEFUROXIME] | 4 µg/mL (≈ 9.43 µM)
28 | C[C@@H](O)[C@H]1C(=O)N2C(C(=O)O)=C([C@H]3CCCO3)S[C@H]12 [FAROPENEM] | 0.5 µg/mL (≈ 1.75 µM)

These compounds were tested on Escherichia coli (assay: Antimicrobial activity against Escherichia coli DH5[alpha] harboring pBC-CTX-M-71 plasmid by agar dilution method). Details: not given.
Type: functional

Row | Compound | MIC
29 | CC1(C)S[C@@H]2[C@H](NC(=O)[C@H](N)c3ccc(O)cc3)C(=O)N2[C@H]1C(=O)O [AMOXICILLIN] | > 512 µg/mL
30 | C[C@H]1[C@H](NC(=O)/C(=N\OC(C)(C)C(=O)O)c2csc(N)n2)C(=O)N1S(=O)(=O)O [AZTREONAM] | 8 µg/mL (≈ 18.4 µM)
31 | CO/N=C(\C(=O)N[C@@H]1C(=O)N2C(C(=O)[O-])=C(C[N+]3(C)CCCC3)CS[C@H]12)c1csc(N)n1 [CEFEPIME] | 4 µg/mL (≈ 8.32 µM)
32 | CO/N=C(\C(=O)N[C@@H]1C(=O)N2C(C(=O)O)=C(COC(N)=O)CS[C@H]12)c1ccco1 [CEFUROXIME] | 512 µg/mL (≈ 1210 µM)
33 | C[C@@H](O)[C@H]1C(=O)N2C(C(=O)O)=C([C@H]3CCCO3)S[C@H]12 [FAROPENEM] | 0.5 µg/mL (≈ 1.75 µM)

What follows are compounds tested on Escherichia coli (assay: Antimicrobial activity against Escherichia coli DH5alpha by agar dilution method in presence of beta-lactamase inhibitor clavulanic acid). Details: DH5[alpha].
Type: functional

Row | Compound | MIC
34 | CC1(C)S[C@@H]2[C@H](NC(=O)[C@H](N)c3ccc(O)cc3)C(=O)N2[C@H]1C(=O)O [AMOXICILLIN] | 2 µg/mL
35 | C[C@@H](O)[C@H]1C(=O)N2C(C(=O)O)=C([C@H]3CCCO3)S[C@H]12 [FAROPENEM] | 0.25 µg/mL

These compounds were tested on Escherichia coli (assay: Antimicrobial activity against Escherichia coli K-12 transconjugant harboring blaCTX-M-71 gene by agar dilution method). Details: not given.
Type: functional

Row | Compound | MIC
36 | CC1(C)S[C@@H]2[C@H](NC(=O)[C@H](N)c3ccc(O)cc3)C(=O)N2[C@H]1C(=O)O [AMOXICILLIN] | > 512 µg/mL
37 | C[C@H]1[C@H](NC(=O)/C(=N\OC(C)(C)C(=O)O)c2csc(N)n2)C(=O)N1S(=O)(=O)O [AZTREONAM] | 8 µg/mL (≈ 18.4 µM)
38 | CO/N=C(\C(=O)N[C@@H]1C(=O)N2C(C(=O)O)=C(COC(N)=O)CS[C@H]12)c1ccco1 [CEFUROXIME] | 256 µg/mL (≈ 603 µM)
39 | C[C@@H](O)[C@H]1C(=O)N2C(C(=O)O)=C([C@H]3CCCO3)S[C@H]12 [FAROPENEM] | 1 µg/mL (≈ 3.5 µM)

These compounds were tested on Escherichia coli (assay: Antimicrobial activity against Escherichia coli K-12 by agar dilution method). Details: not given.
Type: functional

Row | Compound | MIC
40 | CC1(C)S[C@@H]2[C@H](NC(=O)[C@H](N)c3ccc(O)cc3)C(=O)N2[C@H]1C(=O)O [AMOXICILLIN] | 2 µg/mL (≈ 5.47 µM)
41 | CO/N=C(\C(=O)N[C@@H]1C(=O)N2C(C(=O)[O-])=C(C[N+]3(C)CCCC3)CS[C@H]12)c1csc(N)n1 [CEFEPIME] | 0.016 µg/mL (≈ 0.0333 µM)
42 | CO/N=C(\C(=O)N[C@@H]1C(=O)N2C(C(=O)O)=C(COC(N)=O)CS[C@H]12)c1ccco1 [CEFUROXIME] | 2 µg/mL (≈ 4.71 µM)
43 | C[C@@H](O)[C@H]1C(=O)N2C(C(=O)O)=C([C@H]3CCCO3)S[C@H]12 [FAROPENEM] | 0.5 µg/mL (≈ 1.75 µM)
